The subject of series [1] is head trauma in mice. Kind of series: Brain edema (tissue water content) after closed head injury in mice. It counts as in vivo. The procedure:
(§1) The cerebroprotective effect of mebicar was assessed in a model of head trauma in mice (Beni-Adani et al., 2001). This type of trauma produces brain edema (i.e. increase in water content), breakdown of the blood brain barrier (BBB) and clinical dysfunction. The clinical status of the mice is evaluated 1 and 24 hours after injury along with measurement of the extent of cerebral edema. The neurological deficit, assessed by a set of criteria termed the Neurological Severity Score (NSS), is maximal at 1 hour after the initiation of head trauma. The NSS slowly decreases over time from the initiation of head trauma, with the gradual spontaneous recovery of the mice.
(i) Induction of closed head injury (CHI) in a mice model. Male Sabra mice (strain from Hebrew University of Jerusalem, Israel), weighing 35 to 45 g, were used. CHI was induced under ether anesthesia. A metal rod weighing 333 g was allowed to free fall from a prefixed height (at 3 cm for a mouse weighing 28-32 g) over the exposed skull covering the left hemisphere in the midcoronal plane. The tip of the rod is covered with silicone, and it delivers the impact to the head that is fixed on the bottom plane of the trauma device. Sham-operated mice were anesthetized, their skull exposed, but trauma was not induced. After CHI the mice were assigned to vehicle or mebicar treatment.
(iii) Evaluation of water content (brain edema). The extent of cerebral edema was evaluated by determining the tissue water content in the injured hemisphere, as previously described (Beni-Adani et al., 2001). Briefly, mice were sacrificed 24 h after injury, the time of peak edema formation, and brain cortical samples of ˜20 mg were cut from the left (traumatized) and right (contralateral) hemispheres, from the site bordering the lesion. The right (non-injured) hemisphere was used as an internal control. Samples were weighed before and after drying in a desiccated oven for 24 h at 95° C. After weighing the “dried” sections, the brain water content was calculated as % H2O=[(wet weight−dry weight)×100]/wet weight.
(iv) Evaluation of drug effect on brain edema. In order to evaluate the effect of a drug, and to do it in a “clinical-relevant” setting, the drug is given 1 h after the injury, immediately after the initial assessment of NSS. This protocol allows a homogenous distribution of the mice between the drug and vehicle treatments, and ensures similar severity of injury in both groups. NSS is then evaluated again at 24 h after injury, and ΔNSS is calculated. The mice are then sacrificed, their brain removed and cortical segments from the site of injury, and contralaterally, are taken for evaluation of edema, as described above in (iii). […]

Series [2] deals with head trauma in mice. Kind of series: Clinical evaluation (Neurological Severity Score) after closed head injury in mice. It counts as in vivo. Particulars: mebicar 750 mg/kg i.p., 5 mice out of 9, spontaneous recovery 2 out of 10 (20%). Here is the method:
as §1
(i) Induction of closed head injury (CHI) in a mice model. […]
(ii) Clinical evaluation of the mice after CHI. Mice were evaluated to define the severity of injury and functional recovery by using a set of clinical criteria. […]
For assessment of posttraumatic neurological impairment, a Neurological Severity Score (NSS) previously described, modified and validated, was used (Shapira et al. 1988; Chen et al. 1996; Beni-Adani et al. 2001). […] The ΔNSS, calculated as the difference between NSS at 1 h and the NSS at any later time-point, is a parameter which reflects the degree of spontaneous recovery following brain injury, as described (Chen et al., 1996; Yatsiv et al., 2002; Beni-Adani et al., 2001). […]

For series [3] the following is noted: in vivo; cited from earlier work.
The conditions of series [4]: in vivo; cited from earlier work. The source holds these as a separate data set.
Series [5] concerns stress and hypoxia. To be noted: 100-1000 mg/kg, cited from earlier work.
Series [6] deals with neuroactive amino acids in the animal's brain. Particulars: cited from earlier work.
In series [7] the test system is experimental arrhythmias. Particulars: in vivo; cited from earlier work.
Series [8] has as its system shock. To be noted: in vivo; cited from earlier work.
Series [9] concerns myocardial contractility. Particulars: in vivo; cited from earlier work.

On to `CN1C(=O)N(C)C2C1N(C)C(=O)N2C` (centres unmarked) [mebicar, 2,4,6,8-tetramethyl-2,4,6,8-tetraazabicyclo[3.3.0]-octane-3,7-dione], for which the “Water content in the brain % (contralateral hemisphere)” value in series [1] (mice, closed head injury, mebicar 750 mg/kg intraperitoneally 1 h after injury, 24 h after injury, contralateral hemisphere, M ± SE) is 77.9 ± 0.27%. Besides, the “Water content in the brain % (traumatized area)” value in [1] (mice, closed head injury, mebicar 750 mg/kg intraperitoneally 1 h after injury, 24 h after injury, traumatized area, M ± SE) is listed as 80.7 ± 0.41%. In addition, the “effect on water content of the contralateral hemisphere” value in series [1] (traumatized mice, mebicar 750 mg/kg i.p.) is “decreased water content up to normal parameters”. For the same compound, the “less water accumulated in the traumatized hemisphere of the brain” value in [1] (traumatized mice, mebicar 750 mg/kg i.p., versus untreated traumatized mice) was “About 35%”. In addition, the “recovery in clinical function (share of mice)” value in [2] was determined as 55.5%. For the same compound, in [3], the metabolism entry was “not metabolized” and the “time to leave the organism” value is ≤ 24 h. Further, in series [4], the toxicity entry is “extremely low toxicity”. In addition, in series [5] (stress and hypoxia), the “effect on parameters of body function under extreme conditions” value is “protective action”. In [5] (tested animals), the “effect on muscle tone, movement coordination, working capacity” value is listed as “without affecting the muscle tone, movement coordination or working capacity”. The “change of balance of neuroactive amino acids in the brain” value in series [6] was “raising the content of gamma-butyric acid”. Further, the “effect in experimental arrhythmias” value in series [7] was “protective action”. For the same compound, the “effect in shock; acid-base and oxygen homeostasis” value in [8] was “antishock action”. Also, the “effect on myocardial contractility” value in [9] is recorded as “increase the myocardial contractility”.

These data come from patent US20080227838A1, “Method for neuroprotection with glycoluril derivatives” (Cereprotec Incorporated, priority 2007, published 2008).
